Test results as given in patent US3956495A, “2,4-Diaminoquinazolines as antithrombotic agents” (Eli Lilly and Company, priority 1973, dated 1976).
Structures can show the parent of a compound that is named as a salt.

Experiments:
[1] = system: collagen-induced aggregation (platelet); test: Collagen-induced platelet aggregation inhibition, in vitro test (Table I); type: cell-based; details: for inhibition at 167 µg/mL: 167 μg/ml; for inhibition at 10.4 µg/mL: 10.4 μg/ml; for inhibition at 41.7 µg/mL: 41.7 μg/ml
Description: (§1) Exp. Biol. Med., 135, 100 (1970), and references cited therein.

[2] = system: ADP-induced aggregation (platelet); test: ADP-induced platelet aggregation inhibition, in vitro test (Table I); type: cell-based; details: for inhibition at 167 µg/mL: 167 μg/ml
Description: as §1

[3] = system: platelet aggregation to collagen challenge; test: Platelet aggregation inhibition to collagen challenge, in vivo-in vitro test after oral administration (Table II); parameters: species or system guinea pig; details: stock suspension 1:4, blood one hour and three hours after dosing
Experimental: Briefly, the test procedure is as follows: blood samples are obtained from a guinea pig prior to the oral administration of the test compound. The test compound when is administered orally and blood samples withdrawn one hour and three hours after dosing. Each blood sample is treated as described in the in vitro test. The test requires one control group of six animals and six animals per compound per dose. For a more detailed description, see Herrmann et al., Proc. Soc. Exp. Biol. Med., 139, 548 (1972).

[4] = Platelet, collagen stock solution 1:32
[5] = Platelet, collagen stock suspension 1:4
[6] = Platelet, 83.4 μg/ml, collagen stock suspension 1:4

Compound: Clc1ccc2nc(N3CCCCC3)nc(N3CCCCC3)c2c1 [2,4-bispiperidino-6-chloroquinazoline]
- inhibition at 167 µg/mL [1, 4]: 91%
- inhibition at 167 µg/mL [2]: 61%

Compound: c1ccc2c(N3CCOCC3)nc(N3CCOCC3)nc2c1 [2,4-bismorpholinoquinazoline]
- inhibition at 10.4 µg/mL [1, 5]: 35%
- inhibition at 5.2 µg/mL ([2]; 5.2 μg/ml): 51%

Compound: 2,4-bispyrrolidinylquinazoline
- % Inhibition of Aggregation, Collagen ([1]; 2.6 μg/ml, collagen stock suspension undiluted): ≥ 20%
- % Inhibition of Aggregation, Collagen ([1]; 83.4 μg/ml, collagen stock suspension 1:4): ≥ 20%
- % Inhibition of Aggregation to Collagen Challenge ([3]; 12.5 mg/kg): ≥ 20%

Compound: Cc1ccc2nc(N3CCOCC3)nc(N3CCOCC3)c2c1 [2,4-bismorpholino-6-methylquinazoline]
- inhibition at 167 µg/mL [1, 4]: 62%
- inhibition at 167 µg/mL [2]: 29%

Compound: Clc1ccc2nc(N3CCOCC3)nc(N3CCOCC3)c2c1 [2,4-bismorpholino-6-chloroquinazoline]
- inhibition at 167 µg/mL [1, 4]: 25%
- inhibition at 167 µg/mL [2]: 3%

Compound: c1ccc2c(NC34CC5CC(CC(C5)C3)C4)nc(N3CCOCC3)nc2c1 [2-morpholino-4-(1-adamantylamino)quinazoline hydrochloride]
- inhibition at 83.4 µg/mL [1, 6]: ≥ 20%

Compound: CN1CCN(c2nc(N3CCOCC3)nc3ccccc23)CC1 [2-morpholino-4-(4-methylpiperazinyl)quinazoline dihydrochloride, dihydrate]
- inhibition at 41.7 µg/mL [1, 5]: ≥ 20%

Compound: CCN(CC)CCNc1nc(N2CCCC2)nc2ccccc12 [2-pyrrolidinyl-4-(2-diethylaminoethylamino)quinazoline]
- inhibition at 10.4 µg/mL ([1]; Platelet, collagen stock suspension undiluted): ≥ 20%
- inhibition at 20.8 µg/mL ([1]; Platelet, 20.8 μg/ml, collagen stock suspension 1:4): ≥ 20%

Compound: c1ccc2c(N3CCCCC3)nc(N3CCCCC3)nc2c1 [2,4-bispiperidinoquinazoline]
- inhibition at 41.7 µg/mL [1, 5]: ≥ 20%
- inhibition at 50 mg/kg ([3]; Cavia porcellus, Platelet, 50 mg/kg): ≥ 20%

Compound: CN1CCN(c2nc(N3CCOCC3)c3ccccc3n2)CC1 [2-(4-methylpiperazinyl)-4-morpholinoquinazoline]
- inhibition at 2.6 µg/mL ([1]; Platelet, 2.6 μg/ml, collagen stock solution 1:32): 30%
- inhibition at 83 µg/mL ([2]; 83 μg/ml): 44%

Compound: NCCNc1nc(N2CCOCC2)c2ccccc2n1 [2-(2-aminoethylamino)-4-morpholinoquinazoline dihydrochloride]
- inhibition at 83.4 µg/mL [1, 6]: ≥ 20%

Compound: CN1CCN(c2nc(N)c3ccccc3n2)CC1 [2-(4-methylpiperazinyl)-4-aminoquinazoline hydrochloride]
- inhibition at 83.4 µg/mL [1, 6]: ≥ 20%

Compound: Nc1nc(N2CCOCC2)nc2ccccc12 [2-morpholino-4-aminoquinazoline]
- inhibition at 41.7 µg/mL [1, 5]: ≥ 20%

Compound: CCN(CC)CCNc1nc(N2CCOCC2)nc2ccccc12 [2-morpholino-4-(2-diethylaminoethylamino)quinazoline hydrochloride]
- inhibition at 41.7 µg/mL [1, 5]: ≥ 20%
- inhibition at 100 mg/kg ([3]; Cavia porcellus, Platelet, 100 mg/kg): ≥ 20%

Compound: CN(C)c1nc(N(C)C)c2ccccc2n1 [2,4-bis(dimethylamino)quinazoline]
- inhibition at 41.7 µg/mL [1, 5]: ≥ 20%

Compound: CCN(CC)c1nc(N2CCOCC2)nc2ccccc12 [2-morpholino-4-diethylaminoquinazoline, 2-morpholino-4-diethylaminoquinazoline hydrochloride]
- inhibition at 10.4 µg/mL [1, 5]: ≥ 20%

Compound: Cc1ccc2nc(N3CCCCC3)nc(N3CCCCC3)c2c1 [2,4-bispiperidino-6-methylquinazoline]
- inhibition at 167 µg/mL [1, 4]: 21%
- inhibition at 167 µg/mL [2]: 5%
